Data from the supplement of paper PMC10307832.

Key:
Assay in all cases: relative viability (nuclei count vs DMSO), 5 days (fraction); higher = more cells survive
[1] = compound: OCc1c[nH]c2ccccc12 [Indole-3-carbinol] + CC(C)C[C@H](NC(=O)[C@H](Cc1ccccc1)NC(=O)c1cnccn1)B(O)O [Bortezomib] (partner 0.002 µM)
Summary of the method: (§1)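 Relative viability divides the nuclei count in treated wells by that in vehicle wells. Lung cancer cell lines were seeded in 1536-well plates, dosed by pin tool the next day, and fixed and stained after 5 days in one step with final 0.05% Triton X-100, 1% formaldehyde and 1 ug/ml Hoechst. Dosing was a single drug or a fixed anchor-drug dose plus five library-drug doses (not always all listed) in √10 steps, and values are medians of duplicate plates imaged at 4×.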

[2] = compound: OCc1c[nH]c2ccccc12 [Indole-3-carbinol] + Cc1cc(Nc2cc(N3CCN(C)CC3)nc(Sc3ccc(NC(=O)C4CC4)cc3)n2)n[nH]1 [Tozasertib] (partner 0.1 µM)
Summary of the method: as §1

[3] = compound: OCc1c[nH]c2ccccc12 [Indole-3-carbinol] + C[C@]1(O)C[C@@H](c2nc(-c3ccc4ccc(-c5ccccc5)nc4c3)c3c(N)nccn32)C1 [Linsitinib] (partner 1 µM)
Summary of the method: as §1

[4] = compound: OCc1c[nH]c2ccccc12 [Indole-3-carbinol] + Nc1nc2[nH]cc(CCc3ccc(C(=O)N[C@@H](CCC(=O)O)C(=O)O)cc3)c2c(=O)[nH]1 [Pemetrexed] (partner 0.2 µM)
Summary of the method: as §1

[5] = compound: OCc1c[nH]c2ccccc12 [Indole-3-carbinol] + N=C(N)NC(=N)NCCc1ccccc1 [Phenformin] (partner 250 µM)
Summary of the method: as §1

Row | Cell Line | relative viability ([1]; first compound 0.253 µM) | relative viability ([1]; first compound 0.8 µM) | relative viability ([1]; first compound 2.53 µM) | relative viability ([1]; first compound 8 µM) | relative viability ([2]; first compound 0.253 µM) | relative viability ([2]; first compound 0.8 µM) | relative viability ([2]; first compound 2.53 µM) | relative viability ([2]; first compound 8 µM) | relative viability ([3]; first compound 0.253 µM) | relative viability ([3]; first compound 0.8 µM) | relative viability ([3]; first compound 2.53 µM) | relative viability ([3]; first compound 8 µM) | relative viability ([4]; first compound 0.253 µM) | relative viability ([4]; first compound 0.8 µM) | relative viability ([4]; first compound 2.53 µM) | relative viability ([4]; first compound 8 µM) | relative viability ([5]; first compound 0.253 µM) | relative viability ([5]; first compound 0.8 µM) | relative viability ([5]; first compound 2.53 µM) | relative viability ([5]; first compound 8 µM)
1 | LC-2-ad | 1.13 | 1.11 | 0.994 | 0.974 | 0.404 | 0.417 | 0.537 | 0.468 | 0.827 | 0.791 | 0.806 | 0.783 | 0.282 | 0.276 | 0.246 | 0.263 | 0.597 | 0.525 | 0.638 | 0.588
2 | HCC-78 | 0.416 | 0.51 | 0.403 | 0.554 | 0.301 | 0.454 | 0.569 | 0.415 | 0.534 | 0.449 | 0.547 | 0.538 | 0.89 | 0.947 | 0.929 | 0.891 | 0.654 | 0.626 | 0.667 | 0.845
3 | LOU-NH91 | 0.497 | 0.459 | 0.566 | 0.522 | 0.65 | 0.693 | 0.749 | 0.634 | 1.01 | 0.899 | 0.937 | 0.943 | 0.432 | 0.404 | 0.401 | 0.396 | 0.783 | 0.708 | 0.725 | 0.699
4 | NCI-H1734 | 0.974 | 1.11 | 0.966 | 0.893 | 0.276 | 0.263 | 0.259 | 0.27 | 0.947 | 0.872 | 0.835 | 0.813 | 0.413 | 0.417 | 0.454 | 0.418 | 0.406 | 0.394 | 0.34 | 0.333
5 | NCI-H520 | 0.543 | 0.613 | 0.498 | 0.563 | 0.445 | 0.46 | 0.417 | 0.457 | 1.04 | 0.872 | 1.24 | 0.854 | 0.671 | 0.687 | 0.69 | 0.757 | 0.58 | 0.549 | 0.622 | 0.585
6 | UMC-11 | 0.748 | 0.726 | 0.757 | 0.904 | 0.196 | 0.202 | 0.187 | 0.204 | 0.937 | 0.983 | 0.963 | 0.967 | 0.787 | 0.757 | 0.751 | 0.717 | 0.33 | 0.319 | 0.339 | 0.324
7 | NCI-H596 | 0.996 | 0.773 | 0.987 | 1.01 | 0.803 | 1.04 | 0.784 | 0.896 | 1.02 | 1.08 | 1.07 | 0.954 | 0.474 | 0.508 | 0.517 | 0.486 | 0.633 | 0.735 | 0.77 | 0.723
8 | NCI-H1755 | 1.02 | 0.939 | 0.976 | 0.995 | 0.642 | 0.592 | 0.647 | 0.535 | 1.03 | 1.05 | 0.95 | 0.959 | 0.422 | 0.436 | 0.435 | 0.386 | 0.645 | 0.594 | 0.636 | 0.625
9 | SK-LU-1 | 1.32 | 1.03 | 1.35 | 0.987 | 0.303 | 0.356 | 0.367 | 0.302 | 1.05 | 1.19 | 1.09 | 1.02 | 1.02 | 1.03 | 1.09 | 1.02 | 0.582 | 0.57 | 0.58 | 0.534
10 | NCI-H647 | 1.15 | 0.718 | 1.04 | 0.883 | 0.147 | – | 0.368 | 0.398 | 1.08 | 1.44 | 1.13 | 1.04 | 0.18 | 0.202 | 0.159 | 0.181 | 0.637 | – | 0.569 | 0.446
11 | SW 1573 | 1.15 | 1.18 | 1.12 | 0.997 | 0.187 | 0.233 | 0.135 | 0.176 | 0.77 | 0.898 | 0.932 | 0.754 | 0.803 | 0.846 | 0.881 | 0.975 | 0.34 | 0.449 | 0.404 | 0.363
12 | HCC-15 | 1.08 | 1.08 | 1.1 | 1.06 | 0.348 | 0.52 | 0.495 | 0.398 | 0.845 | 1.02 | 0.824 | 0.843 | 0.214 | 0.226 | 0.205 | 0.235 | 0.54 | 0.556 | 0.472 | 0.468
13 | NCI-H2126 | 1.11 | 1.11 | 1.1 | 1.1 | 0.849 | 0.876 | 0.793 | 0.866 | 0.694 | 0.715 | 0.68 | 0.702 | 0.664 | 0.746 | 0.624 | 0.651 | 0.51 | 0.518 | 0.525 | 0.512
14 | NCI-H2085 | 1.07 | 1.15 | 1.14 | 0.967 | 0.848 | 0.914 | 0.887 | 0.79 | 0.828 | 0.897 | 0.982 | 0.779 | 0.965 | 0.927 | 0.932 | 0.758 | 0.684 | 0.85 | 0.787 | 0.624
15 | BEN | 0.91 | 0.729 | 0.966 | 0.727 | 0.463 | – | 0.479 | 0.554 | 0.863 | 0.827 | 0.84 | 0.847 | 0.75 | 0.704 | 0.757 | 0.905 | 0.269 | 0.262 | 0.265 | 0.253
16 | NCI-H650 | 0.955 | 0.748 | 0.83 | 0.746 | 0.743 | 0.767 | 0.805 | 0.681 | 0.948 | 0.773 | 0.909 | 0.712 | 0.959 | 0.851 | 0.937 | 1.04 | 0.47 | 0.491 | 0.484 | 0.416
